Measurements as given in patent US20190117651A1, “COMPOSITION FOR STIMULATING SIRTUIN ACTIVITY” (Bitop AG, priority 2016, published 2019).

Test system: sirtuin activity in the lung tissue
Assay: repeated application of a solution containing ectoine into the lungs of rats; sirtuin activity in the lung tissue
Type: in vivo
Source text: The composition proposed by the invention can generally be adopted for the treatment and/or prophylaxis of aging symptoms and for influencing self-renewal processes, cell differentiation and cell proliferation. The composition is of particular importance in the treatment of aging symptoms of the lung, especially of the senile emphysema. This is characterized by the degeneration of the alveolar structures in the lungs, which leads to a reduction of the lung surface which is available for the exchange of gas. In such cases, the patient finds it hard to breathe properly. […] The aging of tissue is attributable to an altered gene activity during the self-renewal and cell differentiation processes in (lung) tissue, which is regulated by the accessibility of DNA by histones and is thus also dependent on sirtuins.

## CC1=NCC[C@@H](C(=O)O)N1 (stereo in doubt) [ectoine, 2-methyl-1,4,5,6-tetrahydropyrimidine-4-carboxylic acid]
  loss of sirtuin activity in the lung tissue: significant reduction of the loss of sirtuin activity
